# In article PMC5855801, “Benzothiophenone Derivatives Targeting Mutant Forms of Estrogen Receptor-α in Hormone-Resistant Breast Cancers” (International Journal of Molecular Sciences, 2018):
# Key:
# [1] = test system: pS2, PR, Cyclin D1 and CDC2 proteins; experiment: Western blotting in TamR3 cells; format: cell-based, human; details: TamR3, 24 h, effect at higher doses
# Protocol: (§1) Serum-starved MCF7 and TamR3 cells were seeded onto a six-well plate at a density of 6 × 10^5 cells/well and treated the following day with VPC-16606 in the presence of 1 nM E2. One micromolar OHT was used as the positive control. After 24 h, cells were lysed in 1× radioimmunoprecipitation assay (RIPA) buffer. Twenty five micrograms of protein were loaded into SDS-PAGE gels and transferred to PVDF membranes. Membranes were incubated with pS2, PR Cyclin D1 and CDC2 antibodies or control α-actin antibody. Bound antibodies were detected using HRP-conjugated secondary antibodies. Chemiluminescence was detected with an Amersham ECL detection kit (GE Healthcare Life Sciences, Chicago, IL, USA), and bands were visualised using the G:BOX imager (Syngene, Cambridge, UK).
# [2] = test system: pS2, PR, Cyclin D1 and CDC2 proteins; experiment: Western blotting in MCF7 cells; format: cell-based, human; details: MCF7, 24 h, effect at higher doses
# Protocol: as §1
structure (smiles),measurement,setting,value
CC(=O)N(/N=C1\Sc2c(C)cccc2C1=O)c1ccccc1Cl [VPC-16606],"Expression of pS2, PR, Cyclin D1 and CDC2 proteins (Western blot)",[1],decreased expression
same,"Expression of pS2, PR, Cyclin D1 and CDC2 proteins (Western blot)",[2],decreased expression
